From US5393897A, “Isolation and structure of spongistatins 5,7,8 and 9” (Arizona Board of Regents acting on behalf of Arizona State …, priority 1993, dated 1995)
Like-named read-outs stand apart in the source and are kept apart here.

Columns and labels:
Format in all cases: cell-based
[1] = system: 60 human tumor cell lines; assay: NCI in vitro primary screen, panel of 60 human tumor cell lines; details: for Compare Correlation Coefficient: TGI-centered mean graph profiles, spongistatin 1 as seed; for correlation of mean-graph fingerprint with microtubule-interactive antimitotics: pattern-recognition analyses, data not shown; for negative log molar TGI50: various human cancer cell lines
Description: (§1) Only two hundred years ago, many diseases ravaged humankind. Many of these diseases now have been controlled or eradicated. In the development of the means to treat or control these diseases, work with the appropriate common experimental animals was of critical importance. With the various types of cancers, and with the HIV virus, such work is presently ongoing. The research for the treatment of various types of cancer is coordinated in the United States by the National Cancer Institute (NCI). NCI, as a government entity, has been charged with assisting anti-cancer research. To establish whether a substance has anti-cancer activity, NCI has established a variety of protocols, one of which involves testing the candidate substance against a cell line panel containing 60 human tumor cell lines. This protocol has been verified and is generally accepted throughout the scientific community. This protocol and the established statistical means of evaluating the results obtained therefrom have been fully described in the literature. See Principles & Practice of Oncology PPO Updates, Volume 3, Number 10, October 1989, by Michael R. Boyd, M.D., Ph.D., for an in depth description of the test protocol. The statistical analysis is explained in "Display and Analysis of Patterns of Differential Activity of Drugs Against Human Tumor Cell Lines: Development of Means Graph and COMPARE Algorithm" Journal of the National Cancer Institute Reports Vol. 81, No. 14, Pg. 1088, Jul. 14, 1989, by K. D. Paull et al. Both of these references are incorporated herein by this reference thereto. The effectiveness and validity of the NCI in vitro protocol continues to be verified.
^a All compounds were tested in quadruplicate at five different con-
entire panel of 60 human tumor cell lines comprising the NCI
^c Correlation coefficients from the Compare pattern-recognition
algorithm were calculated by computer using the TGI-centered
mean graph profiles of differential cellular sensitivities to 1, and
5. The TGI mean graph profile of 1 was used as the benchmark or
"seed" for all of the comparisons.

HL-60(TB) = assay: NCI cell line panel; details: Homo sapiens, Leukemia, read-out: Log10 GI50 (converted)
Description: as §1

OVCAR-5 = assay: NCI cell line panel; details: Homo sapiens
Description: as §1

OVCAR-4 = assay: NCI cell line panel; details: Homo sapiens, Ovarian Cancer, read-out: Log10 GI50 (converted)
Description: as §1

EKVX = assay: NCI cell line panel; details: Homo sapiens; for GI50: read-out: Log10 GI50 (converted)
Description: as §1

CAKI-1 = assay: NCI cell line panel; details: Homo sapiens, Renal Cancer, read-out: Log10 GI50 (converted)
Description: as §1

SR = assay: NCI cell line panel; details: Homo sapiens, Leukemia, read-out: Log10 GI50 (converted)
Description: as §1

SF-539 = assay: NCI cell line panel; details: Homo sapiens, CNS Cancer, read-out: Log10 GI50 (converted)
Description: as §1

LOX IMVI = assay: NCI cell line panel; details: Homo sapiens, Melanoma
Description: as §1

U251 = assay: NCI cell line panel; details: Homo sapiens, U-251; CNS Cancer; read-out: Log10 GI50 (converted)
Description: as §1

SF-268 = assay: NCI cell line panel; details: Homo sapiens, CNS Cancer; for GI50: read-out: Log10 GI50 (converted); for IC (TGI): read-out: Log10 TGI (converted)
Description: as §1

HCC-2998 = assay: NCI cell line panel; details: Homo sapiens, Colon Cancer, read-out: Log10 GI50 (converted)
Description: as §1

HOP-92 = assay: NCI cell line panel; details: Homo sapiens, Non-Small Cell Lung Cancer, read-out: Log10 GI50 (converted)
Description: as §1

SK-OV-3 = assay: NCI cell line panel; details: Homo sapiens
Description: as §1

TK-10 = assay: NCI cell line panel; details: Homo sapiens
Description: as §1

A498 = assay: NCI cell line panel; details: Homo sapiens; for GI50: A498, Renal Cancer, read-out: Log10 GI50 (converted)
Description: as §1

UO-31 = assay: NCI cell line panel; details: Homo sapiens
Description: as §1

MCF7/ADR-RES = assay: NCI cell line panel; details: Homo sapiens, Breast Cancer; for GI50: read-out: Log10 GI50 (converted)
Description: as §1

IGROV1 = assay: NCI cell line panel; details: Homo sapiens, IGROV-1, Ovarian Cancer; for GI50: read-out: Log10 GI50 (converted); for IC (TGI): read-out: Log10 TGI (converted)
Description: as §1

OVCAR-3 = assay: NCI cell line panel; details: Homo sapiens, Ovarian Cancer, read-out: Log10 GI50 (converted)
Description: as §1

DU-145 = assay: NCI cell line panel; details: Homo sapiens, Prostate Cancer, read-out: Log10 GI50 (converted)
Description: as §1

T-47D = assay: NCI cell line panel; details: Homo sapiens, T47D, Breast Cancer
Description: as §1

CCRF-CEM = assay: NCI cell line panel; details: Homo sapiens, Leukemia; for GI50: read-out: Log10 GI50 (converted)
Description: as §1

HS 578T = assay: NCI cell line panel; details: Homo sapiens; for GI50: read-out: Log10 GI50 (converted)
Description: as §1

HCT-15 = assay: NCI cell line panel; details: Homo sapiens, Colon Cancer, read-out: Log10 GI50 (converted)
Description: as §1

RPMI-8226 = assay: NCI cell line panel; details: Homo sapiens, Leukemia, read-out: Log10 GI50 (converted)
Description: as §1

SNB-75 = assay: NCI cell line panel; details: Homo sapiens, CNS Cancer, read-out: Log10 GI50 (converted)
Description: as §1

BT-549 = assay: NCI cell line panel; details: Homo sapiens
Description: as §1

[2] = Homo sapiens, NCI 60 cell line panel, read-out: panel mean GI50
[3] = Homo sapiens, panel mean graph midpoint, read-out: MG-MID, Log10 GI50 (converted)
[4] = Homo sapiens, quadruplicate, five concentrations, standard errors averaged less than 15% of means, read-out: Mean Panel GI50
[5] = read-out: Log10 TGI (converted)
[6] = read-out: Log10 GI50 (converted)

Row | SMILES | potency and specificity against NCI human cancer cell lines [1] | GI50 [1, 2] [nM] | GI50 [1, 3] [nM] | GI50 [1, 4] [nM] | Compare Correlation Coefficient [1] | correlation of mean-graph fingerprint with microtubule-interactive antimitotics [1] | negative log molar TGI50 [1] | GI50 (HL-60(TB)) [nM] | GI50 (OVCAR-4) [nM] | GI50 (CAKI-1) [nM] | GI50 (SR) [nM] | GI50 (SF-539) [nM] | GI50 (U251) [nM] | GI50 (SF-268) [nM] | IC (TGI) (SF-268) [nM] | GI50 (HCC-2998) [nM] | GI50 (HOP-92) [nM] | GI50 (A498) [nM] | GI50 (MCF7/ADR-RES) [nM] | GI50 (IGROV1) [nM] | other results
1 | C=C(Cl)/C=C/C(O)CC(=C)CC1OC2C(C)C(OC(=O)CC3CC(O)CC4(CC(C)(O)CC(C=C5COC(C(C)C(=O)CC6CC(OC)CC7(CC(O)CC(/C=C\CCCC8OC(O)(CC(O)C8C)C2O)O7)O6)C5C)O4)O3)C1O (centres unmarked) [spongistatin 5] | remarkably potent and specific | 0.1 | 0.0631 | 0.123 | 0.92 | closely correlated | approximately ten | 0.0129 | 14.1 | 0.0575 | 0.012 | 0.0229 | 0.0617 | 0.151 | 100 | 0.0631 | 1.41 | 0.0257 | 0.912 | 0.141 | LC50 ([1]; Homo sapiens, read-out: MG-MID, Log10 LC50 (converted)): 79.4 nM; IC (TGI) ([1]; Homo sapiens, panel mean graph midpoint, read-out: MG-MID, Log10 TGI (converted)): 13.8 nM; GI50 (OVCAR-5; OVCAR-5, read-out: Log10 GI50 (converted)): 4.07 nM; GI50 (EKVX): 0.182 nM; IC (TGI) (LOX IMVI; [5]): 11 nM; GI50 (SK-OV-3; SK-OV-3, Ovarian Cancer, read-out: Log10 GI50 (converted)): 0.191 nM; GI50 (TK-10; TK-10, Renal Cancer, read-out: Log10 GI50 (converted)): 36.3 nM; LC50 (50% lethal concentration) (A498; A498, read-out: Log10 LC50 (converted)): 87.1 nM; GI50 (UO-31; UO-31, read-out: Log10 GI50 (converted)): 0.427 nM; IC (TGI) (IGROV1): 95.5 nM; GI50 (OVCAR-3): 0.0151 nM; GI50 (DU-145): 0.024 nM; GI50 (T-47D; [6]): 100 nM; GI50 (CCRF-CEM): 0.017 nM; IC (TGI) (CCRF-CEM; [5]): 4.17 nM; GI50 (HS 578T; Breast Cancer): 0.437 nM; GI50 (HCT-15): 0.0631 nM; GI50 (RPMI-8226): 0.0129 nM; GI50 (SNB-75): 0.012 nM; GI50 (BT-549; BT-549, read-out: Log10 GI50 (converted)): 0.219 nM
2 | C=C/C=C/C(O)CC(=C)CC1OC2C(C)C(OC(=O)CC3CC(O)CC4(CC(C)(O)CC(C=C5COC(C(C)C(=O)CC6CC(OC)CC7(CC(O)CC(/C=C\CCCC8OC(O)(CC(O)C8C)C2O)O7)O6)C5C)O4)O3)C1O (centres unmarked) [spongistatin 7] | remarkably potent and specific | 0.1 | 1.17 | 1.01 | 0.81 | closely correlated | approximately ten | 0.0794 | 24 | 12 | 0.0912 | 0.49 | 0.759 | 6.31 | 100 | 1.41 | 5.25 | 2.69 | 77.6 | 0.617 | GI50 (OVCAR-5; OVCAR-5, Ovarian Cancer, read-out: Log10 GI50 (converted)): 20.9 nM; GI50 (EKVX; Non-Small Cell Lung Cancer): 41.7 nM; IC (TGI) (EKVX; Non-Small Cell Lung Cancer, read-out: Log10 TGI (converted)): 100 nM; GI50 (LOX IMVI; [6]): 0.468 nM; GI50 (SK-OV-3; SK-OV-3, read-out: Log10 GI50 (converted)): 1 nM; GI50 (TK-10; TK-10, read-out: Log10 GI50 (converted)): 56.2 nM; IC (TGI) (TK-10; TK-10, Renal Cancer, read-out: Log10 TGI (converted)): 100 nM; GI50 (UO-31; UO-31, Renal Cancer, read-out: Log10 GI50 (converted)): 24 nM; IC (TGI) (MCF7/ADR-RES; [5]): 100 nM; IC (TGI) (IGROV1): 67.6 nM; GI50 (OVCAR-3): 0.0759 nM; GI50 (DU-145): 1.58 nM; IC (TGI) (T-47D; [5]): 100 nM; GI50 (CCRF-CEM): 0.24 nM; IC (TGI) (HS 578T; Breast Cancer, read-out: Log10 TGI (converted)): 100 nM; GI50 (HS 578T): 1.29 nM; GI50 (HCT-15): 6.17 nM; GI50 (RPMI-8226): 0.708 nM; GI50 (SNB-75): 0.372 nM; IC (TGI) (BT-549; BT-549, Breast Cancer, read-out: Log10 TGI (converted)): 100 nM
